Experimental findings from US20240026383A1 (priority 2020, published 2024) are described below.

“Also recorded” adds a separate entry of the source.

The subject of data set [1] is Flavobacterium IR1. Kind of data set: Theophylline toxicity assay on growth. The data set is classed as cell-based. The settings on record: 24 hours at 25° C. As for the experimental part:
Because theophylline uptake from IR1 appears to be a prerequisite, a toxicity assay was carried out on the growth of IR with varying theophylline concentrations ([…]) grown for 24 hours at 25° C. […] The arrow indicates the time when theophylline was added to the medium. […] Therefore, 2 mM of theophylline was used for inducing the intron splicing in following experiments.

For data set [2], the system named is EndA of P. putida. Put plainly: FnCas12a targeting assay with Tagged-T4 td intron variants in P. putida. The data set is classed as cell-based, Pseudomonas putida. The note with it: media with or without theophylline. The method, then: Plasmids bearing the four T4 td intron-FnCas12a or the intron-less FnCas12a and an EndA T or an NT crRNA were transformed to P. putida and the targeting efficiency was assessed by comparing the CFUs μg^−1 in the presence or absence of the theophylline inducer.
In more detail, electrocompetent P. putida cells were transformed (2.5 kV, 200 Ω, 25 μF) with 200 ng plasmid and recovered in 1 ml LB for 2 hours at 30° C. Then, the culture was serially diluted and drop plated on selective (50 μg mL^−1 kanamycin) LB agar plates in the presence or absence of 2 mM theophylline. The agar plates were incubated at 30° C. for 24 hours and the CFUs were counted.
P. putida was transformed with a series of plasmids (listed in Table 6) and serially diluted and drop plated on selective (kanamycin) LB media with or without 2 mM theophylline. […] However, for P. putida, the effect of induction was more apparent than E. coli as no CFUs could be observed for transformants bearing the T crRNA and plated on selective media with theophylline. […] Collectively, the Tagged-intron constructs work efficiently in P. putida and can be used for genome engineering.

Data set [3] relates to LacZ gene of E. coli MG1655. Kind of data set: SIBR-Cas genome editing (HR and CRISPR-Cas counterselection) of LacZ. The data set is classed as cell-based. From the text:
For efficient genome editing in bacteria, HR should precede CRISPR-Cas counterselection. To assess whether tight control over CRISPR-Cas targeting could bolster the efficiency of CRISPR-Cas mediated genome editing by allowing more time for HR to occur, we used SIBR-Cas and targeted the LacZ gene of E. coli MG1655 for knock-out through HR and CRISPR-Cas counterselection using a blue/white screening colony assay. To facilitate HR, we added 500 bp up- and down-stream homology arms to the plasmids expressing the four SIBR-Cas (Int1-4) and WT-FnCas12a variants that target the LacZ gene. After 1 hour recovery, we induced the expression of the SIBR-Cas variants to counterselect the WT from the mutant colonies.
Since disruption of LacZ can also be achieved through non-HR mediated approaches (spontaneous mutations or occasional error-prone DNA repair following DNA cleavage by Cas12a), not all gene deletions can be screened phenotypically. Therefore, we repeated our experiment, but X-gal was omitted from the medium to eliminate the possibility of false-positives. Randomly selected colonies that were obtained were screened by PCR for LacZ deletion showing a 0%, 0%, 29% and 38% editing efficiency for Int1, Int2, Int3 and Int4 SIBR-Cas variants, respectively (FIG. 24C). […] The observed decrease in editing efficiency (compared to the blue/white screening) might be attributed to spontaneous LacZ mutations that escape CRISPR-Cas counterselection. Nevertheless, a high editing efficiency (38%) was observed when SIBR-Cas Int4 was used without the use of recombinases or any other complex systems.

For data set [4], the system named is LacZa of E. coli MG1655. Kind of data set: FnCas12a targeting assay with Tagged-T4 td intron variants (CFU drop plating). The data set is classed as cell-based. The settings on record: T crRNA, both induced and non-induced selective media. From the text:
Four different intron variants (as shown previously in FIG. 8), referred to as “Tag1”, “Tag2”, etc. (Tag1: −4P, −5P, −6P; Tag2: −4W, […] −4W, −5W, −6P; Tag4: −4M, −5P, −6P) are inserted directly after the start codon of the GOI (FnCas12a gene). The 5′ exon sequences of the four different tags are indicated: Tag1: TCCtcaGGT (SEQ ID NO: 7); Tag2: TCCtcgGGT (SEQ ID NO: 8); Tag3: TCCttgGGT (SEQ ID NO: 9); Tag4: TCCtctGGT (SEQ ID NO: 10). The 3′ exon sequence is conserved amongst the 4 different tags and indicated as CTA (SEQ ID NO: 12). The amino acids corresponding to the Tag sequences are indicated with capital bold letters above the Tagged-introns. Intron-less (wild-type) FnCas12a was used as a reference for comparison. Efficiency of targeting of the different Tagged-T4 td intron variants was assessed by using either a LacZa targeting (T) or a non-targeting (NT) crRNA and by comparing the amount of colony forming units (CFUs) of transformed E. coli MG1655 per μg of plasmid used (CFUs μg^−1). CFU was determined by the number of colonies observed.
Electrocompetent E. coli MG1655 were transformed (2.5 kV, 200 Ω, 25 μF) with 10 ng μL^−1 of the respective plasmid and recovered for 1 hour in 500 μL LB medium [10 g L^−1 tryptone (Oxoid), 5 g L^−1 yeast extract (BD), 10 g L^−1 NaCl (Acros)] at 37° C. Then, the recovered culture was serially diluted and drop plated on selective (50 μg mL^−1 kanamycin) LB agar plates in the presence or absence of 2 mM theophylline. The agar plates were incubated at 30° C. for 24 hours and the CFUs were counted.
E. coli MG1655 was transformed with a series of plasmids (listed in Table 4) and serially diluted and drop plated on selective (kanamycin) LB media with or without 2 mM theophylline. […] The effect of the CFU reduction was more apparent for the Tag4-intron where colonies could only be observed at the 10° dilution, followed by Tag3-intron (10^−1) then Tag2-intron (10^−2) and finally Tag1-intron ([…]).

In the case of `Cn1c(=O)c2[nH]cnc2n(C)c1=O` [Theophylline, theophylline], the “growth of IR1” value is “decreased the growth” in data set [1] (5 and 10 mM of theophylline); “did not affect significantly the growth” in data set [1] (theophylline concentration of up to 2 mM).

For “WT-FnCas12a: Intron-less (wild-type) FnCas12a used as a reference for comparison [reference compound]”, the CFUs entry is “did not have any CFUs” in data set [2] and “complete elimination of CFUs” in data set [4]. Besides, in data set [3] (LacZ targeting), the colonies obtained result was “no colonies; also recorded: did not yield any colonies”. In data set [3] (X-gal omitted from the medium), the “unbiased editing efficiency (LacZ deletion by PCR of randomly selected colonies)” value came to 0%. The “editing efficiency: percentage of white colonies from total CFUs mL-1” value in data set [3] (blue/white screening, LacZ targeting, induced after 1 hour recovery) was 0%.
